One assay concerns MAPK (Erk2). In words: MAPK phosphorylation ELISA in HUVEC. The assay is classed as cell-based, human. Conditions: HUVEC stimulation. How it is done: HUVECs were cultured as above. Lyates were prepared in (1 mM EDTA, 0.5% Triton X-100, 6M urea, 5 mM NaF, 100 uM PMSF, 25 mM sodium pyrophosphate, 1 mM sodium orthovanadate, pH 7.2-7.4, 1× cOmplete™ mini EDTA-free protease inhibitor). BCA protein concentration kit was used to measure protein concentration of each lysate as per manufacturer's instructions (Thermo Scientific). Samples were subjected to ELISAs that measured phosphorylated MAPK and total MAPK levels according to the manufacturer's protocol (R&D Systems). 20 μg or 10 μg of protein from each sample was loaded in duplicate for phosphorylated MAPK and total MAPK readings respectively. Phosphorylated MAPK:total MAPK ratios were determined for each sample. The level of MAPK phosphorylation for all treatment groups were then normalized to that of the no treatment group (NT, EBM only) in each experiment.
(In general: ELISA stands for enzyme-linked immunosorbent assay.)

For assay [1], the system named is Influenza A virus HKx31 (H3N2). Type of assay: in vivo, C57BL/6J mice. Conditions: mouse, in vivo.
Assay [2] has as its system histamine-induced vascular leakage. In words: Cutaneous histamine challenge, Evans blue dye extravasation. Type of assay: in vivo, male FVB mice. An excerpt:
10-week old male FVB mice were purchased from Jackson Laboratories. Mice were housed in a Vivarium on a standard light:dark cycle and were given free access to food and water. On day 0 mice were anesthetized with isoflurane and the entire dorsal area was shaved with an electric shaver. Residual hair was removed via application of depilatory cream. Residual cream was removed with sterile gauze and water. […] Immediately following Evans blue dye administration, and while still under anesthesia, a single PBS injection (dorsal, intradermal, 50 ul) and three equally spaced histamine injections (dorsal, intradermal, 1.25 ug contained in 50 ul) were applied. Once the intradermal injections were complete, the mice were removed from anesthesia and were placed back into their housing cages for 25 minutes.
Cardiac transperfusion After 25 minutes of exposure to histamine the mice were placed under anesthesia with an appropriate volume of 2.5% avertin (100 ul/10 g body weight via intraperitoneal injection). Once a deep plane of anesthesia was produced the mice were place and secured in a supine position, the chest was surgically opened, the heart was exposed and a catheter terminating in a 23 gauge needle was inserted into the left ventricle. Once the catheter was securely in place, a cut in the right atria was performed and 25 ml of cold PBS was delivered, via the catheter at 100 mmHg to flush out all intravascular Evans blue dye. Once a mouse was effectively perfused the dorsal skin was surgically removed. Four, 12 mm skin biopsies were collected (1PBS, 3 histamine) for each mouse using a standardized skin punch. In all cases, the biopsy that received PBS served as a baseline control for that individual mouse.
Quantification of Evans blue dye extravassation Skin biopsies were placed in labelled tubes and placed in a 60 degree Celsius oven for 16 hrs to removed all moisture. […] An Evans blue dye standard curve encompassing high and low experimental data points was constructed such that the amount of Evans blue dye extravassation (ug/g of skin) could be calculated.

In assay [3] the test system is Influenza A virus HKx31 (H3N2). As to conditions: 100 ng/mouse/day; Sugiyama M G et al, 2015; cited from earlier work.

Data on one substance can be found in patent US20250345387A1, “CORONAVIRUS THERAPEUTICS AND TREATMENT METHODS” (priority 2020, published 2025).

“parental Vasculotide: 10 kDa 4-armed polyethylene glycol with Tie2 binding peptides (CHHHRHSF) attached via maleimide; mimics Ang1 [reference compound]”: the “activation of MAPK (phosphorylated MAPK:total MAPK)” value with MAPK (Erk2) is listed as “downstream activation of MAPK”. For the same substance, in assay [1], the activity score result is given as “significantly improved”, the “lung oxygenation (SpO2)” value was “significantly improved” and the “thermal regulation (body temperature)” value is given as “significantly improved”. The “overall survival of infected mice” value in assay [1] (ip) was “significantly improved overall survival”. Further, the “reduction of histamine-induced vascular leakage compared with MPA-Br” value in assay [2] (parental Vasculotide 500 ng/mouse vs MPA-Br at equal dose or 125 ng/mouse) was “performed less well”. In addition, the “vascular leakage (extravassation of Evans blue dye) vs vehicle treated mice” value in assay [2] (prophylactic IP dose one hour prior to cutaneous histamine challenge) is on record as “significantly less vascular leakage”. Also, in assay [3], the “survival following infection with X31 influenza” value is “ineffective at enhancing survival”.
